Source: patent US20050048508A1, “Trehalose receptor and method for detecting trehalose with the same” (KABUSHIKI KAISHA HAYASHIBARA SEIBUTSU KAGAKU KENKYUJO, priority 2002, published 2005)

Target: T1, T1R1 and T1R3 with G protein α-subunits (α15 and α16/Z chimeric protein) (Mus musculus, UniProt Q925D8+Q99PG6, I706N)
T1 construct: expressed in transfected cells; host or cells: 293 cells, RCB 1637 (human embryonic kidney)
T1 sequence (Q99PG6 20-842 L120P/N244D/D281A/N309Y/P311T/S314P/H418Y): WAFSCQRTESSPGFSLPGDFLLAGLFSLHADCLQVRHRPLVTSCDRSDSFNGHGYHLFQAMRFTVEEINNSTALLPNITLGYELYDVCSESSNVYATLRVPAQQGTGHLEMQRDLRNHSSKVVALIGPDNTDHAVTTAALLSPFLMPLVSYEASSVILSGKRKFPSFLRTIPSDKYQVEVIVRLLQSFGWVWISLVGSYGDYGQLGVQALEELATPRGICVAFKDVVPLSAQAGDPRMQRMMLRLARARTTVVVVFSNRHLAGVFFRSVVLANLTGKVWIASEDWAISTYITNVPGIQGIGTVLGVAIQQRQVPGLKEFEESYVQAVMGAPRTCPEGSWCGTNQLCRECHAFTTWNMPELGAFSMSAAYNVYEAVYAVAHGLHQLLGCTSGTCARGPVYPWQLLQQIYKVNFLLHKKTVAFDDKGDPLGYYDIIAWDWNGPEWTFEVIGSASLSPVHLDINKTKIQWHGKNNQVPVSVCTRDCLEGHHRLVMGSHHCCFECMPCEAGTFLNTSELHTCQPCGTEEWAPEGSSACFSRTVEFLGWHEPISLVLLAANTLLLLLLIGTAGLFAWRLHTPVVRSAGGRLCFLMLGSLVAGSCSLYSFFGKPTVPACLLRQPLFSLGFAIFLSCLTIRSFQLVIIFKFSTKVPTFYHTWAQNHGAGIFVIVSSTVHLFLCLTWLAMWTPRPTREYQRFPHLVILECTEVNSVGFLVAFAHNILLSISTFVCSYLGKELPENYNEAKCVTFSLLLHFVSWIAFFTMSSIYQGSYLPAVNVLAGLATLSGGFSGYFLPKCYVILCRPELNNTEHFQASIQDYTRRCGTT
T1 sequence (Q925D8 21-858 I706N): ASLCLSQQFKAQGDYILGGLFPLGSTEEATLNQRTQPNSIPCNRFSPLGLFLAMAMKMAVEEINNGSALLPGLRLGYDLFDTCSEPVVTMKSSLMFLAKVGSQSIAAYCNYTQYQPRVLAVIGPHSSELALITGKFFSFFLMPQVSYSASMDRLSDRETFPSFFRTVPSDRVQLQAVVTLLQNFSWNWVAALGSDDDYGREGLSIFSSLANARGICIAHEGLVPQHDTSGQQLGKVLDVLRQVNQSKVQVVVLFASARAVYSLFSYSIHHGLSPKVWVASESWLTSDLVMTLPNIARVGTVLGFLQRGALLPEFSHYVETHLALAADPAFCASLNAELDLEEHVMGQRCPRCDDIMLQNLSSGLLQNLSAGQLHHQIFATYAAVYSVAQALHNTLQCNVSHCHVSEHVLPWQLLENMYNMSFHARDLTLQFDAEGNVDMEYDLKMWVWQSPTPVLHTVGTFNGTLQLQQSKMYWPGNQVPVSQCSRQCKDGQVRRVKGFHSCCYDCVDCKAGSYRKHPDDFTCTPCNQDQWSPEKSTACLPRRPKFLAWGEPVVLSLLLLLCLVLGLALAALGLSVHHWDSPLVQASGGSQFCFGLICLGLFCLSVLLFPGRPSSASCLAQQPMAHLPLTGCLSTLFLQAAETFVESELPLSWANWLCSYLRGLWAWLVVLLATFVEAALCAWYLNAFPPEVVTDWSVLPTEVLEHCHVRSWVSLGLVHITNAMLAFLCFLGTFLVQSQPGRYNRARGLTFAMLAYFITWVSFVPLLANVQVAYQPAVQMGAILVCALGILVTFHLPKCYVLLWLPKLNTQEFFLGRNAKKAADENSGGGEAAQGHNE
Assay: Intracellular calcium ion assay, 293 cells coexpressing G protein α-subunits, T1R1 and T1R3
Format: cell-based
Conditions: 293 cells: T1R1 + T1R3 + G protein α-subunits; 0.67 ml of 1 M saccharide solution added to 2 ml cell suspension; FLUO-4 AM
Procedure: The coexpression vector for the G protein α-subunit α15 and the G protein α16/Z chimeric protein (hereinafter designated as “G protein α-subunits”) obtained in Example 1-3 was gene transferred to 293 cells, RCB 1637, a human embryonic kidney cell line, available from the Riken Bioresource Center, Ibaraki, Japan, by conventional lipofection. The gene transferred cells were suspended in Dulbecco's Modified Eagle's Medium (D-MEM) supplemented with 1 mg/L of “PUROMYCIN”, a trade mane of puromycin commercialized by Edge Biosystems, MD, USA, and 10% (v/v) of fetal calf serum to give a cell density of 2×10^6 cells/ml and cultured in a plastic petri dish for cell culture. […]
The captioned reactivity test was conducted according to a conventional intracellular calcium ion assay: 293 Cells prepared in Example 3, capable of coexpressing the G protein α-subunits and the sweet taste receptor(s), were cultured in a plastic petri dish for cell culture until reaching its confluent phase. […] Two milliliters of the resultant cell suspension was injected into a glass cuvette, commercialized by Hitachi, Ltd., Tokyo, Japan, and analyzed on “HITACHI 650-40”, a fluorescence spectrophotometer commercialized by Hitachi, Ltd., Tokyo, Japan. […]

| Influx of calcium ion | SMILES |
| --- | --- |
| Negative | OC[C@H]1O[C@@](CO)(O[C@H]2O[C@H](CO)[C@@H](O)[C@H](O)[C@H]2O)[C@@H](O)[C@@H]1O [Sucrose, reference compound] |
| Positive | OC[C@H]1O[C@H](O[C@H]2O[C@H](CO)[C@@H](O)[C@H](O)[C@H]2O)[C@H](O)[C@@H](O)[C@@H]1O [Trehalose] |
